Test results taken from US6034134A, “1-Amino-alkylcyclohexane NMDA receptor antagonists” (Merz + Co. GmbH & Co., priority 1998, dated 2000).
Counter-ions that a name gives are not always drawn. Like-named read-outs stand apart in the source and are kept apart here.

Experiments:
[1] = Maximal electroshock (MES)-induced convulsions in mice; type: in vivo; details: for ED50: Mus musculus, ip, 0.5 h, read-out: MES ED50; for MES ED50: 30 min
Method: (§1) NMR female mice (18-28 g) housed 5 per cage were used for the maximal electroshock (MES) and motor impairment tests. […] All compounds were dissolved in 0.9% saline.
(§2) The MES test was performed together with tests for myorelaxant action (traction reflex) and motor coordination (rotarod). For the traction reflex test mice were placed with their forepaws on a horizontal rod and were required to place all 4 paws on the wire within 10 seconds. To test ataxia (motor coordination) mice were placed on rotarod (5 rpm) and were required to remain on the rod for 1 minute. […] These tests were followed by MES (100 Hz, 0.5 second shock duration, 50 mA shock intensity, 0.9 ms impulse duration, Ugo Basile) applied through corneal electrodes. The presence of tonic convulsions was scored (tonic extension of hind paws with minimum angle to the body of 90°). The aim was to obtain ED50 s for all parameters scored (anticonvulsive activity and motor side effects) with use of the Litchfield Wilcoxon test for quantal dose responses. Division of the ED50 for side effects (ataxia or myorelaxation) by the ED50 for antagonism of electroshock convulsions was used as a therapeutic index (TI). […]

cortical neurones = test: Excitotoxicity: glutamate toxicity in cultured cortical neurones (MTT); type: cell-based, rat; details: Rattus norvegicus, Cortical neurone
Method: Cortical neurones were obtained from cerebral cortices of 17/18 day old fetal rats (Wistar), in general following the dissociation procedure described by. After short trypsinization and gentle trituration with fire-polished Pasteur pipettes, the cell suspension was washed by centrifugation. Cells were suspended in serum-free Neurobasal medium with B27 supplement (GIBCO) before plating onto poly-L-lysine (Sigma; 0.2 mg/ml, 20 h, 4° C.) and laminin (Sigma; 2 μg/ml, 1 h, 37° C.)-coated 96-well plates (Falcon, Primaria) at a density of 5×10^4 cells/well. Cortical neurones were maintained at 37° C. in humidified 10% CO2 /90% air. […] The medium was changed first after 4 days in vitro and then every 4 days by replacing 2/3 of the medium with astrocyte-conditioned medium. Cortical neurones between day 12 and 14 in culture were used for the experiments.
New-born rat astrocytes were isolated non-enzymatically according to the method of [24]. Briefly, both hemispheres were dissected from 2-day-old rats, passed through an 80 μm gauze, and triturated with Pasteur pipettes. Cell suspension was made in Dulbecco's modified essential medium (DMEM, Gibco) supplemented with 10% fetal calf serum (FCS, Hyclone), 2 mM glutamine (Gibco) and 50 μg/ml gentamycin and transferred into untreated, plastic culture flasks (Corning; […]). Two days after plating the flasks were shaken for 10 minutes on a rotary platform (150 U/min) to remove microglial cells. The cultures were grown to confluency within 14 days, and the culture medium was changed twice weekly. Thereafter, the glial monolayers were extensively washed with serum-free Neurobasal medium (Gibco) to remove the serum. Flasks were then shaken several times to remove oligodendrocytes and neurones. To obtain conditioned medium from primary astrocytes, the cultures were incubated with fresh Neurobasal medium supplemented with B27 andglutamine. Every 2-3 days the conditioned medium was collected and replaced by fresh medium up to 4 times.
Exposure to EAA was performed in serum-free Neurobasal medium containing 100 μM glutamate and the drug to be tested. After 20 h of incubation, the cytotoxic effect was morphologically examined under a phase contrast microscope and biochemically quantified by measuring cell viability with the MTT test (Promega). This calorimetric assay measures the reduction of a tetrazolium component (MTT) into an insoluble formazan product by the mitochondria of living cells. After incubation of the cortical neurones with the dye solution for approximately 1-4 hours, a solubilization solution was added to lyse the cells and solubilize the colored product (incubation overnight at 37° C., 10% CO2, 90% RH). These samples were then read using an Elisa plate reader (Thermomax, MWG Biotech) at a wavelength of 570 nm. The amount of color produced was directly proportional to the number of viable cells.
(§3) IC50 s in patch clamp, excitotoxicity, and binding studies were calculated according to the four parameter logistic equation using the Grafit computer program (Erithacus Software, England). Ki value for binding studies were then determined according to Cheng and Prusoff. Binding values presented are means±SEM of 3-5 determinations (each performed in duplicate). […] Pearson product moment correlation analysis (Sigma Stat, Jandel Scientific) was used to compare in vitro potencies and in vivo anticonvulsant activity.

NMDA receptor [2] = test: Patch clamp: NMDA-induced inward currents in cultured hippocampal neurones; type: cell-based, rat
Method: Hippocampi were obtained from rat embryos (E20 to E21) and were then transferred to calcium and magnesium free Hank's buffered salt solution (Gibco) on ice. Cells were mechanically dissociated in 0.05% DNAase/0.3% ovomucoid (Sigma) following an 8 minute pre-incubation with 0.66% trypsin/0.1% DNAase (Sigma). The dissociated cells were then centrifuged at 18 ×g for 10 minutes, re-suspended in minimum essential medium (Gibco) and plated at a density of 150,000 cells cm^-2 onto poly-L-lysine (Sigma)-precoated plastic petri dishes (Falcon). The cells were nourished with NaHCO3 /HEPES-buffered minimum essential medium supplemented with 5% fetal calf serum and 5% horse serum (Gibco) and incubated at 37° C. with 5% CO2 at 95% humidity. […] Thereafter the medium was exchanged partially twice weekly.
Patch clamp recordings were made from these neurones with polished glass electrodes (4-6 m.OMEGA.) in the whole cell mode at room temperature (20-22° C.) with the aid of an EPC-7 amplifier (List). Test substances were applied by switching channels of a custom-made fast superfusion system with a common outflow (10-20 ms exchange times). The contents of the intracellular solution were as follows (mM): CsCl (120), TEACl (20), EGTA (10), MgCl2 (1), CaCl2 -(0.2), glucose (10), ATP(2), cAMP (0.25); pH was adjusted to 7.3 with CsOH or HC1. The extracellular solutions had the following basic composition (mM): NaCl (140), KCl (3), CaCl2 (0.2), glucose (10), HEPES (10), sucrose (4.5), tetrodotoxin (TTX 3*10^-4). Glycine (1 μM) was present in all solutions: a concentration sufficient to cause around 80-85% activation of glycineB receptors. Only results from stable cells were accepted for inclusion in the final analysis, i.e., following recovery of responses to NMDA by at least 75% of their depression by the antagonists tested.
as §3

[3] = cited from earlier work; for side effects in humans: human, in vivo
[4] = Method: All animals were kept with water and food ad libitum under a 12 hour light-dark cycle (light on at 6 a.m.) and at a controlled temperature (20±0.5° C.). All e experiments were performed between 10 a.m. and 5 p.m. Tested agents were injected 30 min. i.p. before the induction of convulsions if not stated otherwise (see below). All compounds were dissolved in 0.9% saline.
NMDA receptor [5] = test: [3H]-(+)-MK-801 binding to rat cortical membranes; details: read-out: MK-801 Ki; Table 9; Cheng-Prusoff with Kd for MK-801 of […]
Method: Male Sprague-Dawley rats (200-250 g) were decapitated and their brains were removed rapidly. The cortex was dissected and homogenized in 20 volumes of ice-cold 0.32 M sucrose using a glass-Teflon homogenizer. The homogenate was centrifuged at 1000 ×g for 10 minutes. The pellet was discarded and the supernatant centrifuged at 20,000 ×g for 20 minutes. The resulting pellet was re-suspended in 20 volumes of distilled water and centrifuged for 20 minutes at 8000 ×g. Then the supernatant and the buffy coat were centrifuged three times (48,000 ×g for 20 minutes) in the presence of 50 mM Tris-HCl, pH 8.0. All centrifugation steps were carried out at 4° C. After resuspension in 5 volumes of 50 mM Tris-HCl, pH 8.0 the membrane suspension was frozen rapidly at -80° C. On the day of assay the membranes were thawed and washed four times by resuspension in 50 mM Tris-HCl, pH 8.0 and centrifugation at 48,000 ×g for 20 minutes. The final pellet was suspended in assay buffer. The amount of protein in the final membrane preparation was determined according to the method of Lowry with some modifications. The final protein concentration used for our studies was between 250-500 μg/ml.
Membranes were re-suspended and incubated in 50 mM Tris-HCl, pH 8.0. […] Incubations were terminated using a Millipore filter system. The samples were rinsed three times with 2.5 ml ice cold assay buffer over glass fiber filters obtained from Schleicher & Schuell under a constant vacuum. Filtration was performed as rapidly as possible. Following separation and rinse, the filters were placed into scintillation liquid (5 ml; Ultima Gold) and radio activity retained on the filters was determined with a conventional liquid scintillation counter (Hewlett Packard, Liquid Scintillation Analyser).
as §3

[6] = Traction reflex test (myorelaxant action) in mice, therapeutic index versus MES; type: in vivo; details: ED50 for traction reflex impairment divided by ED50 for MES
Method: as §1, §2

[7] = Rotarod test (motor coordination, ataxia) in mice, therapeutic index versus MES; type: in vivo; details: mouse, in vivo, ip; ED50 for rotarod failure divided by ED50 for MES; read-out: TI Rot.
Method: All compounds were dissolved in 0.9% saline.
The MES test was performed together with tests for myorelaxant action (traction reflex) and motor coordination (rotarod). For the traction reflex test mice were placed with their forepaws on a horizontal rod and were required to place all 4 paws on the wire within 10 seconds. To test ataxia (motor coordination) mice were placed on rotarod (5 rpm) and were required to remain on the rod for 1 minute. […] These tests were followed by MES (100 Hz, 0.5 second shock duration, 50 mA shock intensity, 0.9 ms impulse duration, Ugo Basile) applied through corneal electrodes. The presence of tonic convulsions was scored (tonic extension of hind paws with minimum angle to the body of 90°). The aim was to obtain ED50 s for all parameters scored (anticonvulsive activity and motor side effects) with use of the Litchfield Wilcoxon test for quantal dose responses. Division of the ED50 for side effects (ataxia or myorelaxation) by the ED50 for antagonism of electroshock convulsions was used as a therapeutic index (TI).
as §3, with “Prusoff.” for “Prusoff. Binding values presented are means±SEM of 3-5 determinations (each performed in duplicate).”

[8] = Table 8, mice, i.p., 95% confidence limits in parentheses
[9] = 20 h, read-out: Glut. Tox. IC50
[10] = read-out: Patch Clamp IC50; Table 7; NMDA 200 μM with glycine 1 μM at -70 mV
[11] = read-out: Patch Clamp IC50; Table 9; NMDA-induced currents

Row | Compound | ED50 [1] [mg/kg] | MES ED50 [1, 8] | IC50 (cortical neurones; [9]) [nM] | IC50 (cortical neurones; read-out: Glut Tox IC50) [nM] | IC50 (NMDA receptor [2]; [10]) [nM] | IC50 (NMDA receptor [2]; [11]) [nM] | side effects in humans [3] | Min Lethality ([4]; i.p., minimal lethal dose) [mg/kg] | therapeutic efficacy in epilepsy ([3]; initial clinical experience) | Ki (NMDA receptor [5]) [nM] | selectivity ratio at 0.5 h ([6]; mouse, in vivo, ip, read-out: TI Tract) | selectivity ratio at 0.5 h [7] | Min Lethality ([4]; mouse, in vivo, ip) [mg/kg] | ED50 [1, 8] [mg/kg] | TI Tract ([6]; 30 min) | IC50 (cortical neurones; Table 9, 100 μM glutamate, read-out: Glut Tox IC50) [nM] | IC50 (NMDA receptor [2]; Table 9; NMDA-induced currents; read-out: Patch Clamp IC50) [nM]
1 | NC12CC3CC(CC(C3)C1)C2 [Amantadine, reference compound] | 184 | 184.0 (122-279) mg/kg | 20700 | 36900 | 71000 | 80800 | rarely produce side effects at the therapeutic doses | – | – | – | – | – | – | – | – | – | –
2 | C[C@]12N[C@H](Cc3ccccc31)c1ccccc12 [MK-801, (+)-5-methyl-10,11-dihydro-5H-dibenzocyclohepten-5,10-imine maleate, reference compound] | 0.16 | 0.16 (0.13-0.21) mg/kg | 12 | 13 | […] | […] | some psychotropic side effects were apparent at therapeutic doses | > 108 | poor | – | – | – | – | – | – | – | –
3 | CC1(C)CC(C)(C)CC(C)(N2CCCC2)C1.Cl [MRZ 2/705, N-(1,3,3,5,5-Pentamethylcyclohexyl) pyrrolidine hydrochloride] | – | – | – | – | – | – | – | > 50 | – | 7140 | 3.9 | 5.4 | – | – | – | – | –
4 | CC1(C)CC(C)(C)CC(C)(CCN)C1 [Mrz 2/662] | – | – | – | – | – | – | – | – | – | 3440 | – | – | > 40 | 30.5 | 1.0 | 530 | 1500
